Data taken from ChEMBL document CHEMBL1201862, “PubChem BioAssay data set” (2004).
The source made the active and inactive calls.

Assays:
[1] = cytotoxicity in HPDE-C7 cells, cell-based, fluorescence, HTS (AID 430); type: functional; conditions: Homo sapiens
[2] = cytotoxicity in KRAS-transformed pancreatic duct cells, primary screen, cell-based, fluorescence, HTS (AID 431); type: functional; conditions: Homo sapiens;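 further: cell line used: HPDE-C7K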
fMet-Leu-Phe receptor = molecular target: T1, fMet-Leu-Phe receptor (Homo sapiens, UniProt P21462); assay: FPR ligands, dose response (AID 519); type: functional
T1 sequence (P21462 whole entry): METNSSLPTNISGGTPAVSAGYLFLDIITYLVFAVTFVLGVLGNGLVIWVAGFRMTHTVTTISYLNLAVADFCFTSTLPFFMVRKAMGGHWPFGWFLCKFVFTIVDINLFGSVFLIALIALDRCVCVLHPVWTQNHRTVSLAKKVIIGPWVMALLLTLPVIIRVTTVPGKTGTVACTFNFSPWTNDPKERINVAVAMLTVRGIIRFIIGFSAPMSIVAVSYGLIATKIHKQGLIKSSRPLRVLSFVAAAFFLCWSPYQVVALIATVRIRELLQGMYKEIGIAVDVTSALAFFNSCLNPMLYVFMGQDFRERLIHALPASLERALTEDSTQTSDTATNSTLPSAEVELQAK

Paired box protein Pax-8 = Paired box protein Pax-8 (Homo sapiens, UniProt Q06710); assay: inhibitors of PAX8-driven TPO luciferase reporter, dose response, RMG-I cells, cherry-pick (AID 687027); type: functional, cell-based;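 further: luciferase reporter driven by Pax8 target thyroperoxidase promoter measured by SteadyGlo luminescence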
[3] = cytotoxicity in OVCAR8 ovarian cancer cells, dose response, PAX8 project, cell-based, plate reader, dry powder samples (AID 743197); type: functional; conditions: OVCAR-8
[4] = A Cell Based Secondary Assay To Explore Cytotoxicity of Compounds that Sensitize Mycobacterium Tuberculosis to Beta-Lactam Antibiotics.; type: functional
Estrogen receptor beta = Estrogen receptor beta (Homo sapiens, UniProt Q92731);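 further: recombinant ER-beta bound to coactivator SRC1 peptide in presence of estradiol agonist; inhibitors block coactivator peptide binding and lower the FRET signal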
[5] = molecular target: Eukaryotic translation initiation factor 4E (Mus musculus, UniProt P63073); assay: eIF4E–eIF4G protein interaction inhibitors, dose response, biochemical, TR-FRET (AID 855); type: functional;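 further: potency for disrupting eIF4E binding to eIF4GI seen as loss of FRET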
[6] = molecular target: T2, Replicative DNA helicase DnaB (Mycobacterium tuberculosis, UniProt P9WMR3); assay: DnaB intein splicing inhibitors, dose response, biochemical, cell-free fluorescence (AID 449749); type: functional
T2 sequence (P9WMR3 whole entry): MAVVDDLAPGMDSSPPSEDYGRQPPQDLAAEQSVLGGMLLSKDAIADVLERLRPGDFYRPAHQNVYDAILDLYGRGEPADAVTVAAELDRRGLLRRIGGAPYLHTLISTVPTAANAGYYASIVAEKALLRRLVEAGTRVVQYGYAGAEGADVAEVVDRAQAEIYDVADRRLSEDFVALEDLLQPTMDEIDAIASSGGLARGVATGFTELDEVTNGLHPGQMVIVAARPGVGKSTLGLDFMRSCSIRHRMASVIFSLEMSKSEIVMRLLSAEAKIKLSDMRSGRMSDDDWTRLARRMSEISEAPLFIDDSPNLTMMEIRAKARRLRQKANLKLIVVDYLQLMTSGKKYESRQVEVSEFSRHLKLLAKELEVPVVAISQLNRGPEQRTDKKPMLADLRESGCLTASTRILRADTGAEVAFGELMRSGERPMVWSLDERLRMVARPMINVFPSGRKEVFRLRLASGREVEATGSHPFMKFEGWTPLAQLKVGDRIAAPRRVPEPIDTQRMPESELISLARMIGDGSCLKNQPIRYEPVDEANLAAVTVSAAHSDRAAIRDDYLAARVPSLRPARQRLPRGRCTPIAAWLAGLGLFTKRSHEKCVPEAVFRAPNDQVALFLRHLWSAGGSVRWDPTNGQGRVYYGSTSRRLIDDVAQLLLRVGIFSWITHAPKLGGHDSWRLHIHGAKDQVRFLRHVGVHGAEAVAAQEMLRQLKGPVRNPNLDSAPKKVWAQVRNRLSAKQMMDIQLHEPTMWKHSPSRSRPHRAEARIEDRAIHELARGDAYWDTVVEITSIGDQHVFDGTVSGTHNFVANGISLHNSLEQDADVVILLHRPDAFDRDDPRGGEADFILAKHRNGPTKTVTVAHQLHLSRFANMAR

Protein RecA = molecular target: T3, Protein RecA (Mycobacterium tuberculosis, UniProt P9WHJ3); assay: Fluorescence Cell-Free Homogeneous Dose Retest to Identify Inhibitors of RecA-Intein Splicing Activity. [Related pubchem assays (depositor defined):AID2097, AID2223, AID489010, AID492950]; type: functional
T3 sequence (P9WHJ3 whole entry): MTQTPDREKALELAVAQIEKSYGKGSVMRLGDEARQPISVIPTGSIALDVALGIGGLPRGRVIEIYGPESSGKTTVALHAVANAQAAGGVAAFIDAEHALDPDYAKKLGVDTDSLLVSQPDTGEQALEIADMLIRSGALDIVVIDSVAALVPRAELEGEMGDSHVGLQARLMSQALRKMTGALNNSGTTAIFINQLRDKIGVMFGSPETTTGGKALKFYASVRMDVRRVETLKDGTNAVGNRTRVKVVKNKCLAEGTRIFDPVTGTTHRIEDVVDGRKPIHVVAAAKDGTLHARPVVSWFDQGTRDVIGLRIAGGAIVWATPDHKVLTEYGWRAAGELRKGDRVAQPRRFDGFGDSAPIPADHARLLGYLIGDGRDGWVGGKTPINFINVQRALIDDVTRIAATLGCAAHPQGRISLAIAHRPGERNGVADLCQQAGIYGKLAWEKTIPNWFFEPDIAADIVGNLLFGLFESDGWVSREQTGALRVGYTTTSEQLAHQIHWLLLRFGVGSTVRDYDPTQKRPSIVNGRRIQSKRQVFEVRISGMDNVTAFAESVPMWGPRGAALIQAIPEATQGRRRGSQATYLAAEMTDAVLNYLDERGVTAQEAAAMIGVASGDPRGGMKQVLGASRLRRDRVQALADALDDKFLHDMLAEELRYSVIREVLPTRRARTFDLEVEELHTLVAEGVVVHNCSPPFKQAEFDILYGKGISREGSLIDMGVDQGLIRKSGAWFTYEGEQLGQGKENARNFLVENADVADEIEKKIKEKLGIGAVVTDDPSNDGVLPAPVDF

Large T antigen = Large T antigen (Simian virus 40, UniProt P03070); type: functional, Betapolyomavirus macacae;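 further: Confirmatory-stage PubChem screen for compounds that inhibit SV40 T antigen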
[7] = molecular target: T4, Rac GTPase-activating protein 1 (Homo sapiens, UniProt Q9H0H5); assay: MgcRacGAP GTPase-activating activity inhibitors, confirmation, biochemical, ADP Hunter fluorescence, primary and confirmatory (AID 624330); type: functional
T4 sequence (Q9H0H5 whole entry): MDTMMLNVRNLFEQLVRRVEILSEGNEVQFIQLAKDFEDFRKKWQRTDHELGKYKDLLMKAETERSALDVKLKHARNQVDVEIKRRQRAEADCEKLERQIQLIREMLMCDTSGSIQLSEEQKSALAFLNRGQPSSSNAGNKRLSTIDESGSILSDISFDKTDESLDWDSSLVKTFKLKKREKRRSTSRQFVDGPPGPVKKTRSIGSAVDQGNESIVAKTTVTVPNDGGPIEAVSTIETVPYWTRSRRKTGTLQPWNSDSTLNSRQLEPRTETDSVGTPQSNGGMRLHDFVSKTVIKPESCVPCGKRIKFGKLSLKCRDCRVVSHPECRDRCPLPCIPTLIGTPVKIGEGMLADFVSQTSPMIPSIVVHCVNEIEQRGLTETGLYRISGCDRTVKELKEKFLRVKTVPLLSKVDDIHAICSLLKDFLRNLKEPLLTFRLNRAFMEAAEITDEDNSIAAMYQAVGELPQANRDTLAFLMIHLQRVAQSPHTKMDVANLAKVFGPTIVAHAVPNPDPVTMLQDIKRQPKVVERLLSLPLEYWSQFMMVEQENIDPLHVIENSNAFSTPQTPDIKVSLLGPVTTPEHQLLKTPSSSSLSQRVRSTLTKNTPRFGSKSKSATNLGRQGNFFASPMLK

[8] = intracellular Trypanosoma cruzi inhibitors in host cells – cell-based, plate reader, cherry-pick samples, set 3, dose response (AID 651818); type: functional;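 further: compounds incubated with infected cells for about four days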
cells [9] = type: functional, cell-based
cells [10] = type: functional, cell-based; remark: listed apart in the source
Cytochrome P450 2D6 = Cytochrome P450 2D6 (Homo sapiens, UniProt P10635);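 further: CYP2D6 member of a cytochrome P450 panel assay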
Cytochrome P450 1A2 = molecular target: T5, Cytochrome P450 1A2 (Homo sapiens, UniProt P05177);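 further: PubChem cytochrome P450 panel assay, CYP1A2 panel member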
T5 sequence (P05177 whole entry): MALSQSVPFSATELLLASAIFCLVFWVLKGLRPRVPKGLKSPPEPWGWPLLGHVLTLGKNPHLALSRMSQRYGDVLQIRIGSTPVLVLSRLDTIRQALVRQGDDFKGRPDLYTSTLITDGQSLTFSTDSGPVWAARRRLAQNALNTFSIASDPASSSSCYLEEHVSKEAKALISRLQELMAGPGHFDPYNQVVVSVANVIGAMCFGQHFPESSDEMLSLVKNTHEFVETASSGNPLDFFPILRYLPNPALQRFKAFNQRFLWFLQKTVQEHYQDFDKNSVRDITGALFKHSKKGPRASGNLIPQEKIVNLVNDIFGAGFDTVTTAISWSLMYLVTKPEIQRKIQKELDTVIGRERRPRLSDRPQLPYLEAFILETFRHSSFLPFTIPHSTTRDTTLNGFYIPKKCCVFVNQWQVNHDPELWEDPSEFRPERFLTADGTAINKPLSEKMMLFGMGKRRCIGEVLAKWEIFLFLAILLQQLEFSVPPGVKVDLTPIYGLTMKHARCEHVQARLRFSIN

[11] = molecular target: FAD-linked sulfhydryl oxidase ALR (Homo sapiens, UniProt P55789); assay: inhibitors of human ALR sulfhydryl oxidase, dose response, biochemical, H2O2 detection, luminescence, cherry-pick (AID 493248)
Chain of FAD-linked sulfhydryl oxidase ALR (P55789 whole entry): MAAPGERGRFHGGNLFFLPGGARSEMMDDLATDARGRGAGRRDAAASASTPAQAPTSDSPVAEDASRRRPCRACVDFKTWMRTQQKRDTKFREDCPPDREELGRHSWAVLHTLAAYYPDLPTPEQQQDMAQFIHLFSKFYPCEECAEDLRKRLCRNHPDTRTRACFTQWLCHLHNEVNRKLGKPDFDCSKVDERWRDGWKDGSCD

Chain of Large T antigen (P03070 whole entry): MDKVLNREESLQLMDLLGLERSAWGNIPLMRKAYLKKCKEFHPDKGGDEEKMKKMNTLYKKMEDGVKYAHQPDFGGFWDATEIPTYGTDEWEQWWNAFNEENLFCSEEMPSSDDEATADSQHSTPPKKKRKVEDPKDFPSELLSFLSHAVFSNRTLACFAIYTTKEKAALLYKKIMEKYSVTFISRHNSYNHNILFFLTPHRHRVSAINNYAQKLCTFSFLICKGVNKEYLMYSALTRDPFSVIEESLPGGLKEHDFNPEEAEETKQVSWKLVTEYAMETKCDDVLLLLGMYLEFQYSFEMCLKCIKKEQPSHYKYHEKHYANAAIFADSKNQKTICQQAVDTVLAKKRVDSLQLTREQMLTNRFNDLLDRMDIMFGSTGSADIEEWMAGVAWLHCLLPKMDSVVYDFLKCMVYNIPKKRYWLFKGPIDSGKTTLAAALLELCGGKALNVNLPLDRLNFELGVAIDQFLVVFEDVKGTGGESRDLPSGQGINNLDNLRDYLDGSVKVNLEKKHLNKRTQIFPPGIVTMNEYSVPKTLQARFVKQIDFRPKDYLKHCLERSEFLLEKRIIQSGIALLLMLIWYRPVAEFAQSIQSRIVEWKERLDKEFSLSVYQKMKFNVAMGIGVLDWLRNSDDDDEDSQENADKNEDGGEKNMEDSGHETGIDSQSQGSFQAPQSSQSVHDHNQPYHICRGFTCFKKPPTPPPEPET
Chain of Paired box protein Pax-8 (Q06710 whole entry): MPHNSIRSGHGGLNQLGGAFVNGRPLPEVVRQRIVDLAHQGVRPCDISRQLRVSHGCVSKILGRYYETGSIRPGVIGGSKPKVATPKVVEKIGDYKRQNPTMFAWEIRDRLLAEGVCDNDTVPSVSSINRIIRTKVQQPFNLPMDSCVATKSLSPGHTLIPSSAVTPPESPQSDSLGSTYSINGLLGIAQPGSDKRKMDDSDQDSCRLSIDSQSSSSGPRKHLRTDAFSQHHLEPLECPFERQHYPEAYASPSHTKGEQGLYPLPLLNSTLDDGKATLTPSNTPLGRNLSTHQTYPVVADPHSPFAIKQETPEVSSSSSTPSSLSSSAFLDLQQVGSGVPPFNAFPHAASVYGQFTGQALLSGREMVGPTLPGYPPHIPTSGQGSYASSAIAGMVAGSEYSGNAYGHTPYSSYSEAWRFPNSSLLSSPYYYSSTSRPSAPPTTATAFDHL
Chain of Estrogen receptor beta (Q92731 whole entry): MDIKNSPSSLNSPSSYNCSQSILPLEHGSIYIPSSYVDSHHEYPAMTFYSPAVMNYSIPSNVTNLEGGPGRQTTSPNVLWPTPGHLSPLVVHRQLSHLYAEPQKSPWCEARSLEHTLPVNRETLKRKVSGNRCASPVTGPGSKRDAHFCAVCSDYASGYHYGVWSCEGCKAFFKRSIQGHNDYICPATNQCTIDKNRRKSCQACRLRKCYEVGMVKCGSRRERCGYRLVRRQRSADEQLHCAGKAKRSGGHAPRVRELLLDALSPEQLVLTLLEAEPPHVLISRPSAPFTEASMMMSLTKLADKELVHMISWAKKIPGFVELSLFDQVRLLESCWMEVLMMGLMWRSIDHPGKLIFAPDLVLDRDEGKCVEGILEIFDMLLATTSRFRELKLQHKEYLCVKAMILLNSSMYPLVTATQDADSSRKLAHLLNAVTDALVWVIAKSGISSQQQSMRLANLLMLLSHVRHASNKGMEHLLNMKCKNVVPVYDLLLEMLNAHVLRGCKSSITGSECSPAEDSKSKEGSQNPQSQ
Chain of Cytochrome P450 2D6 (P10635 whole entry): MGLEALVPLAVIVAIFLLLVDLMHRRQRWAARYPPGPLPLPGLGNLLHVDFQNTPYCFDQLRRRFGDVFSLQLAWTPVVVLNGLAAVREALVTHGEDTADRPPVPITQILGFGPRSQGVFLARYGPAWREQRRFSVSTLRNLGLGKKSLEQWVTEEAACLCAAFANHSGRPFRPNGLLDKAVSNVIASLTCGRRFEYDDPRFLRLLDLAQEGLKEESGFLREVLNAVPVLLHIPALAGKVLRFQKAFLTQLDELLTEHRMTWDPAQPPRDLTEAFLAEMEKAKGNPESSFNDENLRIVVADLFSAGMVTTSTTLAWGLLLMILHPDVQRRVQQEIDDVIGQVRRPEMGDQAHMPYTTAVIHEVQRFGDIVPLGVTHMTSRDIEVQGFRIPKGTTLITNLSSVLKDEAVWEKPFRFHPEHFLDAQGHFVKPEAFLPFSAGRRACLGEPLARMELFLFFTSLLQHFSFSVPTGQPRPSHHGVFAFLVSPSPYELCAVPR
Chain of Eukaryotic translation initiation factor 4E (P63073 whole entry): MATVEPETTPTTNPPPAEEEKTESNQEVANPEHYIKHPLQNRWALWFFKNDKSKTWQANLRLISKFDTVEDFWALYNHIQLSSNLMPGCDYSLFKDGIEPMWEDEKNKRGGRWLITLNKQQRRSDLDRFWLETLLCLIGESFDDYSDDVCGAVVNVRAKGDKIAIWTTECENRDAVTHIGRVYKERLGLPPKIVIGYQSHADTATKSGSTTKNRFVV

## O=C(Nc1ccc(CN2CCOCC2)cc1)c1ccc(-c2ccc(Br)cc2)o1
[1]
  EC50: 13.9 µM (active)
[2]
  EC50: 9.91 µM (active)

## COc1ccccc1NC(=O)c1cc2ccccc2o/c1=N\O
[1]
  EC50: > 20 µM (not active)
[2]
  EC50: > 20 µM (not active)

## O=C1C(C23CC4CC(CC(C4)C2)C3)C(=O)N(c2ccccc2)N1c1ccccc1
fMet-Leu-Phe receptor
  Ki: 11.5 µM (active)

## O=S(=O)(c1ccccc1)N1CCCCN2[C@H](CO)[C@H](c3ccc(-c4ccccc4F)cc3)[C@H]2C1
Paired box protein Pax-8
  AC50: 33.7 µM (active)
[3]
  AC50: > 70 µM (inactive)

## CCOc1ccc2nc(N3CCC(C(=O)NC4CCCCC4)CC3)sc2c1
[4]
  CC50: > 40 µM (active)

## O=C1CC(c2ccc(S(=O)(=O)NCCOc3ccccc3)cc2)CN1 (stereo not drawn)
Estrogen receptor beta
  IC50: > 50 µM (not active)

## O=C(C1=C(O)C(=O)N(CCN2CCOCC2)C1c1ccccc1)c1cccs1 (stereo not drawn)
fMet-Leu-Phe receptor
  Ki: > 66.7 µM (inactive)

## O=C1CCCC(O)=C1C(C#Cc1ccccc1)C1=C(O)CCCC1=O
[5]
  IC50: > 64 µM (inactive)
[6]
  AC50: 6.78 µM (active)
Protein RecA
  EC50: > 380 µM (inconclusive)
fMet-Leu-Phe receptor
  Ki: > 66.7 µM (inactive)

## COc1cc(/C=N/NC(=S)NCCN2CCOCC2)ccc1O
Large T antigen
  IC50: 6.95 µM (active)
[7]
  IC50: 19.9 µM (active)

## COc1ccc(NC(=O)Nc2ccc3c(c2)CC(=O)N([C@H](C)CO)C[C@@H](C)[C@@H](CN(C)Cc2ccc(C(=O)Nc4ccccc4N)cc2)O3)cc1
[8]
  AC50: 2.16 µM (active)

## C[C@@H]1CN([C@H](C)CO)C(=O)c2cccc(NC(=O)Nc3ccc(C(F)(F)F)cc3)c2O[C@@H]1CN(C)Cc1ccc(Oc2ccccc2)cc1
[8]
  AC50: 7.23 µM (active)

## COc1ccccc1/C=C/C(=O)NCC(=O)N/N=C/c1cc(Br)ccc1OC
[4]
  CC50: 27.5 µM (active)

## COc1ccc(CN(C)C[C@@H]2OCCCC[C@@H](C)Oc3ccc(NC(=O)Nc4ccc(C(F)(F)F)cc4)cc3C(=O)N([C@@H](C)CO)C[C@H]2C)cc1
Paired box protein Pax-8
  AC50: 8.11 µM (active)
[3]
  AC50: > 70 µM (inactive)

## Clc1ccc(-c2csc3ncnc(N4CCc5ccccc5C4)c23)cc1
[4]
  CC50: > 40 µM (active)

## CCOC(=O)c1sc(N(Cc2ccccc2)C(=O)COC(=O)c2ccc(O)cc2)nc1C
Cells [9]
  EC50: > 350 µM (not active)
Cells [10]
  EC50: 175 µM (active)

## C[C@@H]1CN([C@H](C)CO)C(=O)c2cc(NC(=O)Nc3cccc4ccccc34)ccc2O[C@@H]1CN(C)Cc1ccc(C(F)(F)F)cc1
[8]
  AC50: 2.44 µM (active)

## CC(C)c1ccc(S(=O)(=O)N2CCN(CCC(=O)Nc3ccc(N(C)C)cc3)CC2)cc1
Large T antigen
  IC50: 15.1 µM (active)

## COc1ccccc1CNC(=O)c1cc2c(C)nn(Cc3ccc(F)cc3)c2s1
[4]
  CC50: > 40 µM (active)
Cytochrome P450 2D6
  AC50: 22.4 µM (inconclusive)
Cytochrome P450 1A2
  AC50: 31.6 µM (inconclusive)

## O=C(Cn1c(=O)oc2ccccc21)N1CCN(c2ccccc2)CC1
fMet-Leu-Phe receptor
  Ki: > 66.7 µM (inactive)

## CCN(CC)C1=CC(=O)OC12CCCCC2
Estrogen receptor beta
  IC50: > 50 µM (not active)

## Cc1cc(=O)oc2c(N)c(O)ccc12
Large T antigen
  IC50: 0.77 µM (active)
[11]
  AC50: 1.32 µM (active)

## Cc1ccc(/C=N\NC(=O)COc2ccc(C)cc2[N+](=O)[O-])cc1
Large T antigen
  IC50: > 100 µM (active)

## COc1ccc(OC)c(C(=O)c2nc3c(n2O)CCCCC3)c1
fMet-Leu-Phe receptor
  Ki: 49.6 µM (inactive)

## Cc1ccc(Cn2c(C(CO)Nc3nc(-c4ccc(Cl)c([N+](=O)[O-])c4)cs3)nc3ccccc32)cc1 (stereo not drawn)
[4]
  CC50: 37.3 µM (active)

## Cc1cccn2c(=O)c3cc(C(=O)N4CCC5(CC4)OCCO5)n(C)c3nc12
[1]
  EC50: 4.7 µM (active)
[2]
  EC50: 8.42 µM (active)
